Patent US9775883B2, “Methods, systems, and compositions for promoting recovery of peripheral neuropathy” (HENRY FORD HEALTH SYSTEM, priority 2011, dated 2017)

Assay: Effect of TB4 on bodyweight of db/db mice
Format: in vivo, mouse
Details: for Weight: db/db mice, mean ± SE
Procedure: All experimental procedures were carried out in accordance with NIH Guide for the Care and Use of Laboratory Animals and approved by the institutional Animal Care and Use Committee of Henry Ford Hospital. Male BKS.Cg-m+/+Lepr^db/J(db/db) mice (Jackson Laboratories, Bar Harbor, Me.) aged 20 weeks were used. Age-matched heterozygotes mice (db/m), a non-penetrant genotype (Jackson Laboratories), were used as the control animals.
db/db mice at age 20 weeks were treated with Tβ4 at a dose of 6 mg/kg or 24 mg/kg (RegeneRx, Inc, intraperitoneal injection, i.p.), every 3 days for 4 weeks (n=10/group). db/db mice (n=10/group) at the same age treated with same volume of saline were used as a control group. Age-matched db/m mice treated with Tβ4 (6 mg/kg i.p. every 3 days, n=10/group) or saline (n=10/group) were used as additional control groups. All mice were sacrificed 8 weeks after the initial treatment. Doses of Tβ4 were selected based on published studies^13.

Structure (SMILES): CC[C@H](C)[C@H](NC(=O)[C@H](CCC(=O)O)NC(=O)[C@H](C)NC(=O)[C@H](CCSC)NC(=O)[C@H](CC(=O)O)NC(=O)[C@@H]1CCCN1C(=O)[C@H](CCCCN)NC(=O)[C@H](CC(=O)O)NC(=O)[C@H](CO)NC(C)=O)C(=O)N[C@@H](CCC(=O)O)C(=O)N[C@@H](CCCCN)C(=O)N[C@@H](Cc1ccccc1)C(=O)N[C@@H](CC(=O)O)C(=O)N[C@@H](CCCCN)C(=O)N[C@@H](CO)C(=O)N[C@@H](CCCCN)C(=O)N[C@@H](CC(C)C)C(=O)N[C@@H](CCCCN)C(=O)N[C@@H](CCCCN)C(=O)N[C@H](C(=O)N[C@@H](CCC(=O)O)C(=O)N[C@H](C(=O)N[C@@H](CCC(N)=O)C(=O)N[C@@H](CCC(=O)O)C(=O)N[C@@H](CCCCN)C(=O)N[C@@H](CC(N)=O)C(=O)N1CCC[C@H]1C(=O)N[C@@H](CC(C)C)C(=O)N1CCC[C@H]1C(=O)N[C@@H](CO)C(=O)N[C@@H](CCCCN)C(=O)N[C@@H](CCC(=O)O)C(=O)N[C@H](C(=O)N[C@H](C(=O)N[C@@H](CCC(=O)O)C(=O)N[C@@H](CCC(N)=O)C(=O)N[C@@H](CCC(=O)O)C(=O)N[C@@H](CCCCN)C(=O)N[C@@H](CCC(N)=O)C(=O)N[C@@H](C)C(=O)NCC(=O)N[C@@H](CCC(=O)O)C(=O)N[C@@H](CO)C(=O)O)[C@@H](C)CC)[C@@H](C)O)[C@@H](C)O)[C@@H](C)O [Tβ4, thymosin beta 4]
- Weight (TB4 6 mg/kg i.p. every 3 days for 4 weeks, 0 w (before the treatment)): 59.5 ± 0.9 g
- Weight (TB4 6 mg/kg, 2 w): 57.1 ± 1.1 g
- Weight (TB4 6 mg/kg, 4 w): 56.2 ± 1.2 g
- Weight (TB4 6 mg/kg, 6 w): 53.7 ± 1.5 g
- Weight (TB4 6 mg/kg, 8 w): 53.0 ± 1.7 g
- Weight (TB4 24 mg/kg i.p. every 3 days for 4 weeks, 0 w (before the treatment)): 58.9 ± 1.1 g
- Weight (TB4 24 mg/kg, 2 w): 58.1 ± 1.2 g
- Weight (TB4 24 mg/kg, 4 w): 55.7 ± 1.5 g
- Weight (TB4 24 mg/kg, 6 w): 56.0 ± 1.4 g
- Weight (TB4 24 mg/kg, 8 w): 54.8 ± 1.6 g
- animal body weight (db/db mouse treated with Tβ4 (Table 1)): did not significantly alter
